The text below walks through data of publication PMC7292872 (Saudi Pharmaceutical Journal : SPJ, 2020).

pKd: −log10 of the molar value.

In general, pKd refers to the negative decadic logarithm of the Kd, by convention in mol/L. A low value points to a high Kd.

The target in the assay is Human serum albumin (HSA) (Homo sapiens, UniProt P02768). Briefly: UV-Vis absorption titration at […] nm. It counts as binding.
Human serum albumin (HSA), sequence (P02768 25-609): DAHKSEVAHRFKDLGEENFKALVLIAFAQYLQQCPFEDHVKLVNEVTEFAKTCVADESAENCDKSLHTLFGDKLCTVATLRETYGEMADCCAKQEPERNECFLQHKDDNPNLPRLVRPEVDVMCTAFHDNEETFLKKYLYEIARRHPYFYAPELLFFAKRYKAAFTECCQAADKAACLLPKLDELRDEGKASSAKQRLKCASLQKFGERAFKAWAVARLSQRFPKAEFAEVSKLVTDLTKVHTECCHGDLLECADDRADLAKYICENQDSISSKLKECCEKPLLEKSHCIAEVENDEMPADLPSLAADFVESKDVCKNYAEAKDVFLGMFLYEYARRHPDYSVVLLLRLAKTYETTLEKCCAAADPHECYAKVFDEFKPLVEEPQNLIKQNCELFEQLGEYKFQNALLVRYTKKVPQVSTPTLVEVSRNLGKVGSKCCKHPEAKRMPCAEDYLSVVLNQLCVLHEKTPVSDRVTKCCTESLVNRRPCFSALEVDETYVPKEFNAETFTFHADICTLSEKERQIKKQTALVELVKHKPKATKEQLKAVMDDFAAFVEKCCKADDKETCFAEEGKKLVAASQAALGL

The compound `CCCc1nc2c(C)cc(-c3nc4ccccc4n3C)cc2n1Cc1ccc(-c2ccccc2C(=O)O)cc1` [TLM] showed a pKd of 3.00.
